Data reported in patent publication US10934298B2, “Substituted pyrazolo[1,5-a]pyrimidines for the treatment of medical disorders” (BIAL—BioTech Investments, Inc., priority 2016, dated 2021).

Biological target: T1, glucocerebrosidase (Gcase) (Homo sapiens, UniProt P04062)
T1 construct: micellar solution containing 10 nM GCase and 100 nM saposin C
T1 sequence (P04062 40-536): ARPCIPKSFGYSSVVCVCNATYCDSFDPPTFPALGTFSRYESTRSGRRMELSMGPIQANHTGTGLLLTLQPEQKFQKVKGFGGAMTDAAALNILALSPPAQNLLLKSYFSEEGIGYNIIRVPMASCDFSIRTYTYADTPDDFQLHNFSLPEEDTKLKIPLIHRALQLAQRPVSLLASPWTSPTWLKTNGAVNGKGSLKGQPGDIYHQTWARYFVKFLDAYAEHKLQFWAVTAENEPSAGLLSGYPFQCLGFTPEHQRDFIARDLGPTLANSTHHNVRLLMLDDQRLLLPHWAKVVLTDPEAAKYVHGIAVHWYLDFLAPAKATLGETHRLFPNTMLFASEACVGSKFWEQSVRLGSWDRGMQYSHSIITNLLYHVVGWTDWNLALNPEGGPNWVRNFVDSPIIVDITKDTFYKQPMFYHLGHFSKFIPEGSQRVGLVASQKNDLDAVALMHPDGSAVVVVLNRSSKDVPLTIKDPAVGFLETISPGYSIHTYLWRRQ
Experiment: Glucocerebrosidase (Gcase) activation assay with 4-methylumbelliferyl-beta-D-glucopyranoside substrate, saposin C and phosphatidylserine/triton micelles, fluorescence readout
Assay type: biochemical
Conditions: Table 3A
Procedure: The ability of exemplary compounds to activate glucocerebrosidase (Gcase) was measured.
A 484 μL aliquot of a 1.0 mg/mL solution of phosphatidylserine (PS) (Sigma P7769) in chloroform was evaporated under a stream of nitrogen for 1 hour. The lipid film was dissolved over 4 minutes of vigorous vortexing in 40 mL of 176 mM K2HPO4/50 mM citric acid (pH 4.7) containing 7.5 μL of triton X-100, resulting in a mixed micellar preparation with a composition of 0.32 mM triton and 0.37 mol % PS. 4-Methylumbelliferyl-beta-D-glucopyranoside (ACROS-337025000) was dissolved in the micellar solution to a final concentration of 2 mM for use as the reaction substrate.
Test compounds were diluted to the desired concentrations with dimethylsulfoxide (DMSO) from 10 mM stocks, and 0.41 μL of the DMSO compound mixture was added to 100 μL of micellar solution containing 10 nM GCase and 100 nM saposin C (Enzo ALX-201-262-C050). Pre-incubation was allowed to occur for 30 minutes at room temperature, after which the reaction was initiated by combining 25 μL of substrate solution with 25 μL of compound/GCase/saposin mixture. The reaction proceeded for 15 minutes at room temperature and was stopped by adding 150 μL of 1M glycine, pH 12.5. The endpoint of the reaction was monitored by measuring fluorescence intensity (excitation: 365 nm; emission: 440 nm) on a SpectraMax i3 instrument (Molecular Devices). Test compounds were screened at 1.0 and 0.1 μM final concentration, and subsequent 8-point dose response curves were obtained using 3-fold dilutions from a maximum final concentration of 5 μM.

| Structure (SMILES) | Percent Gcase Activation, 0.1 μM Test Compound | Percent Gcase Activation, 1 μM Test Compound |
| --- | --- | --- |
| Cc1cc(-c2cccnc2)nc2c(C(=O)N[C@H]3CC[C@H](OCC(C)C)CC3)cnn12 [III-39] | ** (Gcase activation in the range of 10% up to 20%) | +++ (Gcase activation greater than 60%) |
| CCCO[C@H]1CC[C@H](NC(=O)c2cnn3c(C)cc(-c4cccnc4)nc23)CC1 [III-40] | * (less than 10% Gcase activation) | + (less than 30% Gcase activation) |
| Cc1cc(-c2cccnc2)nc2c(C(=O)NC(C(C)C)C(F)(F)F)cnn12 (stereo not shown) [III-41] | ** (Gcase activation in the range of 10% up to 20%) | +++ (Gcase activation greater than 60%) |
| CCC(NC(=O)c1cnn2c(C)cc(-c3cccnc3)nc12)C(F)(F)F (stereo not shown) [III-42] | * (less than 10% Gcase activation) | +++ (Gcase activation greater than 60%) |
| Cc1cc(-c2cccnc2)nc2c(C(=O)NC(C)C(F)(F)F)cnn12 (stereo not shown) [III-43] | * (less than 10% Gcase activation) | ++ (Gcase activation in the range of 30% up to 60%) |
| Cc1cc(NC2CC2)nc2c(C(=O)NC(C3CC3)C(F)(F)F)cnn12 (stereo not shown) [III-44] | *** (greater than 20% Gcase activation) | +++ (Gcase activation greater than 60%) |
| Cc1cc(Cl)nc2c(C(=O)NC(C3CC3)C(F)(F)F)cnn12 (stereo not shown) [III-45] | *** (greater than 20% Gcase activation) | +++ (Gcase activation greater than 60%) |
| COCc1cc(-c2ccc(F)cc2)nc2c(C(=O)N[C@@H](C)C3CC3)cnn12 [III-46] | * (less than 10% Gcase activation) | ++ (Gcase activation in the range of 30% up to 60%) |
| COCc1cc(-c2ccc(F)cc2)nc2c(C(=O)NC(C)(C)C3CC3)cnn12 [III-47] | ** (Gcase activation in the range of 10% up to 20%) | +++ (Gcase activation greater than 60%) |
| CCc1cc(-c2ccccn2)n2ncc(C(=O)NC(C)C3CC3)c2n1 (stereo not shown) [III-48] | * (less than 10% Gcase activation) | ++ (Gcase activation in the range of 30% up to 60%) |
| CCc1cc(-c2ccccn2)nc2c(C(=O)NC(C)C3CC3)cnn12 (stereo not shown) [III-49] | * (less than 10% Gcase activation) | +++ (Gcase activation greater than 60%) |
| Cc1cc(-c2ccccn2)nc2c(C(=O)NC(C)C(F)(F)F)cnn12 (stereo not shown) [III-50] | ** (Gcase activation in the range of 10% up to 20%) | +++ (Gcase activation greater than 60%) |
| CCc1cc(-c2ccccn2)n2ncc(C(=O)NC(C)C(F)(F)F)c2n1 (stereo not shown) [III-51] | * (less than 10% Gcase activation) | + (less than 30% Gcase activation) |
| CCc1cc(-c2ccccn2)nc2c(C(=O)NC(C)C(F)(F)F)cnn12 (stereo not shown) [III-52] | * (less than 10% Gcase activation) | +++ (Gcase activation greater than 60%) |
| COc1cccc(-c2cc(C)n3ncc(C(=O)NC(C)C(F)(F)F)c3n2)c1 (stereo not shown) [III-55] | *** (greater than 20% Gcase activation) | +++ (Gcase activation greater than 60%) |
| Cc1cc(-c2cccc(F)c2)nc2c(C(=O)N[C@@H](C)C3CC3)cnn12 [III-56] | *** (greater than 20% Gcase activation) | +++ (Gcase activation greater than 60%) |
| COc1cccc(-c2cc(C)n3ncc(C(=O)N[C@@H](C)C4CC4)c3n2)c1 [III-57] | *** (greater than 20% Gcase activation) | +++ (Gcase activation greater than 60%) |
| Cc1cc(N2CCOCC2)nc2c(C(=O)NC(C)C3CC3)cnn12 (stereo not shown) [III-58] | * (less than 10% Gcase activation) | + (less than 30% Gcase activation) |

| Structure (SMILES) | Percent Gcase Activation, 0.1 μM Test Compound | Percent Gcase Activation, 1 μM Test Compound |
| --- | --- | --- |
| Cc1cc(N2CCOCC2)nc2c(C(=O)NC(C)(C)C3CC3)cnn12 [III-59] | * (less than 10% Gcase activation) | ++ (Gcase activation in the range of 30% up to 60%) |
| Cc1cc(N2CCC(F)(F)CC2)nc2c(C(=O)NC(C)C3CC3)cnn12 (stereo not shown) [III-60] | * (less than 10% Gcase activation) | ++ (Gcase activation in the range of 30% up to 60%) |
| Cc1cc(N2CCCC(F)(F)C2)nc2c(C(=O)NC(C)C3CC3)cnn12 (stereo not shown) [III-61] | *** (greater than 20% Gcase activation) | +++ (Gcase activation greater than 60%) |
| Cc1cc(-c2cccc(Cl)n2)nc2c(C(=O)NC(C)(C)C3CC3)cnn12 [III-62] | *** (greater than 20% Gcase activation) | +++ (Gcase activation greater than 60%) |
| C#CC(C)(C)NC(=O)c1cnn2c(C)cc(-c3cccc(Cl)n3)nc12 [III-63] | ** (Gcase activation in the range of 10% up to 20%) | ++ (Gcase activation in the range of 30% up to 60%) |
| Cc1cc(-c2cccc(Cl)c2)nc2c(C(=O)NC(C)C(F)(F)F)cnn12 (stereo not shown) [III-64] | *** (greater than 20% Gcase activation) | +++ (Gcase activation greater than 60%) |
| Cc1cc(-c2cccc(Cl)c2)nc2c(C(=O)N[C@@H](C)C3CC3)cnn12 [III-65] | *** (greater than 20% Gcase activation) | +++ (Gcase activation greater than 60%) |
| Cc1cc(N2CCCC(F)(F)C2)nc2c(C(=O)NC(C3CC3)C(F)(F)F)cnn12 (stereo not shown) [III-66] | *** (greater than 20% Gcase activation) | +++ (Gcase activation greater than 60%) |
| Cc1cc(N2CCC(F)(F)C2)nc2c(C(=O)NC(C3CC3)C(F)(F)F)cnn12 (stereo not shown) [III-67] | *** (greater than 20% Gcase activation) | +++ (Gcase activation greater than 60%) |
| Cc1cc(C(F)(F)F)nc2c(C(=O)NC(C)(C)C3CC3)cnn12 [III-68] | * (less than 10% Gcase activation) | + (less than 30% Gcase activation) |
| C#CC(C)(C)NC(=O)c1cnn2c(C)cc(-c3cccc(OC)c3)nc12 [III-69] | *** (greater than 20% Gcase activation) | +++ (Gcase activation greater than 60%) |
| Cc1cc(-c2cccc(C#N)c2)nc2c(C(=O)N[C@@H](C)C3CC3)cnn12 [III-70] | *** (greater than 20% Gcase activation) | +++ (Gcase activation greater than 60%) |
| Cc1cc(-c2cccc(C#N)c2)nc2c(C(=O)NC(C)(C)C3CC3)cnn12 [III-71] | *** (greater than 20% Gcase activation) | +++ (Gcase activation greater than 60%) |
| Cc1cc(-c2cccc(C#N)c2)nc2c(C(=O)NC(C3CC3)C(F)(F)F)cnn12 (stereo not shown) [III-72] | *** (greater than 20% Gcase activation) | +++ (Gcase activation greater than 60%) |
| Cc1cc(-c2cccc(C(N)=O)c2)nc2c(C(=O)NC(C3CC3)C(F)(F)F)cnn12 (stereo not shown) [III-73] | *** (greater than 20% Gcase activation) | +++ (Gcase activation greater than 60%) |
| COCc1cc(-c2cccc(F)c2)nc2c(C(=O)NC(C)(C)C3CC3)cnn12 [III-74] | ** (Gcase activation in the range of 10% up to 20%) | +++ (Gcase activation greater than 60%) |
| C#CC(C)(C)NC(=O)c1cnn2c(C)cc(-c3cccc(F)c3)nc12 [III-75] | *** (greater than 20% Gcase activation) | +++ (Gcase activation greater than 60%) |
